tested on: Aβ42; experiment: In vitro cell screening assay in H4 cells expressing human APP751: Aβ42 by sandwich ELISA; type: cell-based; settings: Homo sapiens, compounds 0.003-10 μM, incubated overnight (16-18 h), sandwich ELISA of supernatant
Method in brief: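 H4 neuroglioma cells stably expressing wild-type human APP751, switched to Pro293 medium and treated with compounds (0.003-10 μM, 0.33% DMSO) for 16-18 h at 37 °C. Supernatant Aβ42 quantified by sandwich ELISA (C-terminal capture, 4G8-HRP detection, A450); EC50 by sigmoidal fit normalized to DMSO and DAPT controls.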

EC50 [nM] | SMILES
> 3000 | COc1nc(C2=NOCC(c3cnn(C)c3)N2)ccc1-n1cnc(C)c1 (single isomer, unassigned; (-)) [Example 166A, (−)-3-(6-methoxy-5-(4-methyl-1H-imidazol-1-yl)pyridin-2-yl)-5-(1-methyl-1H-pyrazol-4-yl)-5,6-dihydro-4H-1,2,4-oxadiazine]
147 | COc1cn(-c2ccc(C3=NOCC(c4cc5cccc(C)c5o4)N3)nc2OC)cn1 (single isomer, unassigned; (+)) [Example 33, (+)-3-(6-methoxy-5-(4-methoxy-1H-imidazol-1-yl)pyridin-2-yl)-5-(7-methylbenzofuran-2-yl)-5,6-dihydro-4H-1,2,4-oxadiazine]

same assay, conditions: compounds 0.003-10 μM, incubated overnight (16-18 h), sandwich ELISA of supernatant

SMILES | EC50 [nM]
COc1nc(C2=NOCC(c3cc4cccc(C)c4o3)N2)ccc1-n1cnc(C)c1 (single isomer, unassigned) [Example 7B, 3-(6-Methoxy-5-(4-methyl-1H-imidazol-1-yl)pyridin-2-yl)-5-(7-methylbenzofuran-2-yl)-5,6-dihydro-4H-1,2,4-oxadiazine] | 23.3
COc1nc(C2=NOCC(c3coc4ccccc34)N2)ccc1-n1cnc(C)c1 (single isomer, unassigned) [Example 38B, 5-(benzofuran-3-yl)-3-(6-methoxy-5-(4-methyl-1H-imidazol-1-yl)pyridin-2-yl)-5,6-dihydro-4H-1,2,4-oxadiazine] | 22.4
COc1nc(C2=NOCC(c3ccccc3)N2)ccc1-n1cnc(C)c1 (single isomer, unassigned) [Example 36A, 3-(6-methoxy-5-(4-methyl-1H-imidazol-1-yl)pyridin-2-yl)-5-phenyl-5,6-dihydro-4H-1,2,4-oxadiazine] | 2740
CCn1cc(C2CON=C(c3ccc(-n4cnc(C)c4)c(OC)n3)N2)c2cc(Cl)c(F)cc21 (single isomer, unassigned; (+)) [Example 73B, (+)-5-(5-chloro-1-ethyl-6-fluoro-1H-indol-3-yl)-3-(6-methoxy-5-(4-methyl-1H-imidazol-1-yl)pyridin-2-yl)-5,6-dihydro-4H-1,2,4-oxadiazine] | 3.9
CCn1cc(C2CON=C(c3ccc(-n4cnc(C)c4)c(OC)n3)N2)c2cc(Cl)c(F)cc21 (single isomer, unassigned; (-)) [Example 73A, (−)-5-(5-chloro-1-ethyl-6-fluoro-1H-indol-3-yl)-3-(6-methoxy-5-(4-methyl-1H-imidazol-1-yl)pyridin-2-yl)-5,6-dihydro-4H-1,2,4-oxadiazine] | 54.9
COc1nc(C2=NOCC(c3cccc(C(F)(F)F)c3)N2)ccc1-n1cnc(C)c1 (single isomer, unassigned; (+)) [Example 113B, (+)-3-(6-methoxy-5-(4-methyl-1H-imidazol-1-yl)pyridin-2-yl)-5-(3-(trifluoromethyl)phenyl)-5,6-dihydro-4H-1,2,4-oxadiazine] | 43
COc1nc(C2=NOCC(c3ccc(Cl)cc3C)N2C)ccc1-n1cnc(C)c1 (single isomer, unassigned) [Example 27A, 5-(4-chloro-2-methylphenyl)-3-(6-methoxy-5-(4-methyl-1H-imidazol-1-yl)pyridin-2-yl)-4-methyl-5,6-dihydro-4H-1,2,4-oxadiazine] | 2180
COc1nc(C2=NOCC(c3cc(F)cc(F)c3)N2)ccc1-n1cnc(C)c1 (single isomer, unassigned; (+)) [Example 81B, (+)-5-(3,5-difluorophenyl)-3-(6-methoxy-5-(4-methyl-1H-imidazol-1-yl)pyridin-2-yl)-5,6-dihydro-4H-1,2,4-oxadiazine] | 43.1

Further lines, results first:

EC50 [nM] | SMILES
1010 | COc1nc(C2=NOCC(c3ccc(C)c(Cl)c3)N2)ccc1-n1cnc(C)c1 (single isomer, unassigned; (-)) [Example 218A, (−)-5-(3-chloro-4-methylphenyl)-3-(6-methoxy-5-(4-methyl-1H-imidazol-1-yl)pyridin-2-yl)-5,6-dihydro-4H-1,2,4-oxadiazine]
25.7 | COc1nc(C2=NOCC(C3Cc4ccccc4C3)N2)ccc1-n1cnc(C)c1 (single isomer, unassigned; (+)) [Example 246B, (+)-5-(2,3-dihydro-1H-inden-2-yl)-3-(6-methoxy-5-(4-methyl-1H-imidazol-1-yl)pyridin-2-yl)-5,6-dihydro-4H-1,2,4-oxadiazine]
281 | COc1nc(C2=NOCC(C3CC(F)(F)C3)N2)ccc1-n1cnc(C)c1 (single isomer, unassigned; (+)) [Example 180B, (+)-5-(3,3-difluorocyclobutyl)-3-(6-methoxy-5-(4-methyl-1H-imidazol-1-yl)pyridin-2-yl)-5,6-dihydro-4H-1,2,4-oxadiazine]
> 3000 | COc1nc(C2=NOCC(c3noc4ccccc34)N2)ccc1-n1cnc(C)c1 (single isomer, unassigned) [Example 174A, 3-(3-(6-methoxy-5-(4-methyl-1H-imidazol-1-yl)pyridin-2-yl)-5,6-dihydro-4H-1,2,4-oxadiazin-5-yl) benzo[d]isoxazole]
576 | COc1nc(C2=NOCC(C3Cc4ccccc4C3)N2)ccc1-n1cnc(C)c1 (single isomer, unassigned; (-)) [Example 246A, (−)-5-(2,3-dihydro-1H-inden-2-yl)-3-(6-methoxy-5-(4-methyl-1H-imidazol-1-yl)pyridin-2-yl)-5,6-dihydro-4H-1,2,4-oxadiazine]
12.9 | COc1nc(C2=NOCC(c3nn(C)c4ccc(Cl)cc34)N2)ccc1-n1cnc(C)c1 (single isomer, unassigned; (+)) [Example 232B, (+)-5-(5-chloro-1-methyl-1H-indazol-3-yl)-3-(6-methoxy-5-(4-methyl-1H-imidazol-1-yl)pyridin-2-yl)-5,6-dihydro-4H-1,2,4-oxadiazine]
109 | COc1nc(C2=NOCC(c3ccc4scnc4c3)N2)ccc1-n1cnc(C)c1 (single isomer, unassigned; (+)) [Example 240B, (+)-5-(benzo[d]thiazol-5-yl)-3-(6-methoxy-5-(4-methyl-1H-imidazol-1-yl)pyridin-2-yl)-5,6-dihydro-4H-1,2,4-oxadiazine]
2460 | COc1nc(C2=NOCC(c3cc4cc(C(F)(F)F)ccc4o3)N2)ccc1-n1cnc(C)c1 (single isomer, unassigned; (-)) [Example 259A, (−)-3-(6-methoxy-5-(4-methyl-1H-imidazol-1-yl)pyridin-2-yl)-5-(5-(trifluoromethyl)benzofuran-2-yl)-5,6-dihydro-4H-1,2,4-oxadiazine]
1100 | COc1nc(C2=NOCC(C3CC3)N2)ccc1-n1cnc(C)c1 (single isomer, unassigned) [Example 134B, 5-cyclopropyl-3-(6-methoxy-5-(4-methyl-1H-imidazol-1-yl)pyridin-2-yl)-5,6-dihydro-4H-1,2,4-oxadiazine]
1720 | COc1nc(C2=NOCC(C(C)(C)C)N2)ccc1-n1cnc(C)c1 (single isomer, unassigned; (+)) [Example 147B, (+)-5-(tert-butyl)-3-(6-methoxy-5-(4-methyl-1H-imidazol-1-yl)pyridin-2-yl)-5,6-dihydro-4H-1,2,4-oxadiazine]
9 | COc1cc2c(cc1Cl)c(C1CON=C(c3ccc(-n4cnc(C)c4)c(OC)n3)N1)cn2C (single isomer, unassigned; (+)) [Example 255B, (+)-5-(5-chloro-6-methoxy-1-methyl-1H-indol-3-yl)-3-(6-methoxy-5-(4-methyl-1H-imidazol-1-yl)pyridin-2-yl)-5,6-dihydro-4H-1,2,4-oxadiazine]
